The source of these data is paper PMC6218957, “VS-4718 Antagonizes Multidrug Resistance in ABCB1- and ABCG2-Overexpressing Cancer Cells by Inhibiting the Efflux Function of ABC Transporters” (Frontiers in Pharmacology, 2018).

Each structure is given as a SMILES string.

For orientation: EC50 means the concentration at which the effect is half-maximal. A low value points to greater potency.

For series [1], the target named is T1, ABCG2 (Homo sapiens, UniProt Q9UNQ0).
T1 sequence (Q9UNQ0 1-655): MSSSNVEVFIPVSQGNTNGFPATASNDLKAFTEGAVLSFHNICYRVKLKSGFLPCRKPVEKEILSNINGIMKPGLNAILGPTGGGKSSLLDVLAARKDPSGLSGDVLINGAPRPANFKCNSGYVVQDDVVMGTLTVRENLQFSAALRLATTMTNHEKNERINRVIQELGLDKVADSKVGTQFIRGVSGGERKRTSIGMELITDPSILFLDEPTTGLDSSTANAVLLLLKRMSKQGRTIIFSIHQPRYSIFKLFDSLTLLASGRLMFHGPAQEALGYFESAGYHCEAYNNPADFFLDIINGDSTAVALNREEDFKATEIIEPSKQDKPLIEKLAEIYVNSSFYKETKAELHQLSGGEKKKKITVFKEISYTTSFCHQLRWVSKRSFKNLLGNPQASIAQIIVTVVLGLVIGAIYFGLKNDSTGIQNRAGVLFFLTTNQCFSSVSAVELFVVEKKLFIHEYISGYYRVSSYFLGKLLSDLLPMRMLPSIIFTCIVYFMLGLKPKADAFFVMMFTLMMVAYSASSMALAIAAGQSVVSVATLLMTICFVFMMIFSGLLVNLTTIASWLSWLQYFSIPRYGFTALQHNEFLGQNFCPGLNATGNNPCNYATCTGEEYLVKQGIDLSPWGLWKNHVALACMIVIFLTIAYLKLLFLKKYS

Series [2] has as its target T2, ABCB1 (Homo sapiens, UniProt P08183).
Series [3] deals with T1, ABCG2. Kind of series: biochemical. Set-up: cell membranes that overexpressed ABCG2.
The target of series [4] is T2, ABCB1. As to the kind of experiment: ATPase stimulation in ABCB1-overexpressing membranes; also [3H]-paclitaxel accumulation/efflux inhibition in KB-C2 cells. The format is biochemical. More on the design: cell membranes that overexpressed ABCB1.

T2 sequence (P08183 whole entry): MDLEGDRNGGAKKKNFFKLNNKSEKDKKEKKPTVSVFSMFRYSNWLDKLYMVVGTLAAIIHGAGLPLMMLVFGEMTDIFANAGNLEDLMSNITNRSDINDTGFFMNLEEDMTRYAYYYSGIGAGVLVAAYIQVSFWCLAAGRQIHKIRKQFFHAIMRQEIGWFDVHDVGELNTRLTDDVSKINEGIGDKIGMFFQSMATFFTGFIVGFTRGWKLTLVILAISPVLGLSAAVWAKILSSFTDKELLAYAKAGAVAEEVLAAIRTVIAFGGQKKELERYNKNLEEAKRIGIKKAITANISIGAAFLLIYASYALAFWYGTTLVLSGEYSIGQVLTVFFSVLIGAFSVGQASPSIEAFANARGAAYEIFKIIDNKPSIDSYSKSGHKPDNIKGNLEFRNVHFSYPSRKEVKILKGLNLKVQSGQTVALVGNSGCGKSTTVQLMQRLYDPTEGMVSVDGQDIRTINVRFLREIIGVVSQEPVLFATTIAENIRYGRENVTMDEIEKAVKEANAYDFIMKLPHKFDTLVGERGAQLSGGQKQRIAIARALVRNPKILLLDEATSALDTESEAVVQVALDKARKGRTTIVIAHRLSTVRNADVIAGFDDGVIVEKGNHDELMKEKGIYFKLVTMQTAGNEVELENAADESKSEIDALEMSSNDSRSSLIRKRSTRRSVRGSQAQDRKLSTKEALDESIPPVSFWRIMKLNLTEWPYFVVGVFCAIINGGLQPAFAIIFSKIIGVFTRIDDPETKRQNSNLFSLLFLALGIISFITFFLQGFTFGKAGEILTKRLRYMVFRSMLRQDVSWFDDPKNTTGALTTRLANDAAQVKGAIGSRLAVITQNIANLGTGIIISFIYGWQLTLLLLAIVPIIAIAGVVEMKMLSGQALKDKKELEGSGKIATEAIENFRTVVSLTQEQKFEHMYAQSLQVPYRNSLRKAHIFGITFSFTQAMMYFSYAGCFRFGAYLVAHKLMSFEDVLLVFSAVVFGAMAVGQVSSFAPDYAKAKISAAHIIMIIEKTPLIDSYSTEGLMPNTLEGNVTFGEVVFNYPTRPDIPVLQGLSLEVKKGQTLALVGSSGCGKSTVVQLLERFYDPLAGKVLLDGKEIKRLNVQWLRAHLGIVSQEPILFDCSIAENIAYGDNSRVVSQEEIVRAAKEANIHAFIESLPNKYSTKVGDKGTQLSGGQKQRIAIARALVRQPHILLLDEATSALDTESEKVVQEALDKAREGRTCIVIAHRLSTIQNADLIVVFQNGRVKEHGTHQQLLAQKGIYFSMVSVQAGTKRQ

Take `O=C1c2c(O)ccc(O)c2C(=O)c2c(NCCNCCO)ccc(NCCNCCO)c21` [Mitoxantrone]: the “radiolabelled efflux/accumulation in ABCG2-overexpressing NCI-H460/MX20 vs paren” value at ABCG2 [1] was “[^3H]-mitoxantrone efflux in ABCG2-overexpressing NCI-H460/MX20 cells”. Take `CC(=O)O[C@H]1C(=O)[C@@]2(C)[C@H]([C@H](OC(=O)c3ccccc3)[C@]3(O)C[C@H](OC(=O)[C@H](O)[C@@H](NC(=O)c4ccccc4)c4ccccc4)C(C)=C1C3(C)C)[C@]1(OC(C)=O)CO[C@@H]1C[C@@H]2O` [Paclitaxel]: the “radiolabelled efflux/accumulation in ABCB1-overexpressing KB-C2 vs parental KB-3” value at ABCB1 [2] is “VS-4718 significantly reduced the efflux of [^3H]-paclitaxel in ABCB1-overexpressing KB-C2 cells”. Regarding `CNC(=O)c1ccccc1Nc1cc(Nc2ccc(N3CCOCC3)cc2OC)ncc1C(F)(F)F` [VS-4718], the values for the EC50 on ABCG2 [3] and on ABCB1 [4] were 9.6 µM and 1.72 µM, respectively.
